Biological target: T1, human mAChR M1 (Homo sapiens, UniProt P11229)
T1 construct: host or cells: CHO-K1 (ATCC), stably transfected
T1 sequence (P11229 1-460): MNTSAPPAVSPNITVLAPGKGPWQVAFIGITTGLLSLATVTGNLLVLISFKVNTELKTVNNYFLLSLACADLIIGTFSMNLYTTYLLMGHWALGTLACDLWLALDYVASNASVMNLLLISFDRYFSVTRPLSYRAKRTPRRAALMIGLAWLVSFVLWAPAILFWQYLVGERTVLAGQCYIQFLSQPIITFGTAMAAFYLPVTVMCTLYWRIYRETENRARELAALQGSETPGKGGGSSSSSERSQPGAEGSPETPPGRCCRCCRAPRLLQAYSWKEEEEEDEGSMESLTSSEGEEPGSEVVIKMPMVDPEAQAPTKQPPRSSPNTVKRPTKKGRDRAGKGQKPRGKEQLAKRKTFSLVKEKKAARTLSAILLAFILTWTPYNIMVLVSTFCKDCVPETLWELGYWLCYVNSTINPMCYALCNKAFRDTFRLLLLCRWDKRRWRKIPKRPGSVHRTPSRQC
Test: mAChR M1 cell-based functional assay (calcium flux, antagonism of EC80 acetylcholine response, hM1 CHO-K1 cells)
Settings: for Human M1 Emin: % ACh maximum at 30 μM; for IC50: decrease of the response elicited by an EC80 concentration of acetylcholine, CHO-K1 cells
Method: hM1 cDNA was purchased from Missouri S&T cDNA Resource and used to stably transfect CHO-K1 cells purchased from the American Type Culture Collection using Lipofectamine2000. hM1 cells were grown in Ham's F-12 medium containing 10% heat-inactivated fetal bovine serum (FBS), 20 mM HEPES, and 50 μg/mL G418 sulfate.
For high throughput measurement of agonist-evoked increases in intracellular calcium, CHO-K1 cells stably expressing muscarinic receptors were plated in growth medium lacking G418 and hygromycin at 15,000 cells/20 μL/well in Greiner 384-well black-walled, tissue culture (TC)-treated, clear-bottom plates (VWR). Cells were incubated overnight at 37° C. and 5% CO2. The next day, cells were washed using an ELX 405 (BioTek) with four washes (80 μL) of assay buffer then aspirated to 20 μL. Next, 20 μL of 16 μM Fluo-4/acetoxymethyl ester (Invitrogen, Carlsbad, CA) prepared as a 2.3 mM stock in DMSO and mixed in a 1:1 ratio with 10% (w/v) Pluronic F-127 and diluted in assay buffer was added to the wells and the cell plates were incubated for 50 min at 37° C. and 5% CO2. Dye was removed by washing with the ELX 405 (four 80 μL washes of assay buffer) then aspirated to 20 μL. Compound master plates were formatted in an 11-point CRC format (1:3 dilutions) in 100% DMSO with a starting concentration of 10 mM using the BRAVO liquid handler (Agilent). Test compound CRCs were then transferred to daughter plates (240 nL) using the Echo acoustic plate reformatter (Labcyte, Sunnyvale, CA) and then diluted into assay buffer (40 μL) to a 2× stock using a Thermo Fisher Combi (Thermo Fisher Scientific, Waltham, MA).
Calcium flux was measured using the Functional Drug Screening System (FDSS) 6000 (Hamamatsu Corporation, Tokyo, Japan) as an increase in the fluorescent static ratio. Compounds were applied to cells (20 μL, 2×) using the automated system of the FDSS 6000 at 4 s into the 300 s protocol and the data were collected at 1 Hz. At 144 s into the 300 s protocol, 10 μL of an EC20 concentration of the muscarinic receptor agonist acetylcholine was added (5×), followed by the addition of 12 μL an EC80 concentration of acetylcholine at the 230 s time point (5×). Agonist activity was analyzed as a concentration-dependent increase in calcium mobilization upon compound addition. Emax values for agonist activity are expressed relative to the maximum for acetylcholine. Positive allosteric modulator activity was analyzed as a concentration-dependent increase in the EC20 acetylcholine response. Antagonist activity was analyzed as a concentration-dependent decrease in the EC80 acetylcholine response; for the purposes of the tables herein, an IC50 (inhibitory concentration 50) was calculated as a concentration-dependent decrease of the response elicited by an EC80 concentration of acetylcholine. […]
The above-described assay was also operated in a second mode where an appropriate fixed concentration of the present compounds were added to the cells after establishment of a fluorescence baseline for about 3 seconds, and the response in cells was measured. 140 s later the appropriate concentration of agonist was added and readings taken for an additional 106 s. Data were reduced as described above and the EC50 values for the agonist in the presence of test compound were determined by nonlinear curve fitting. […]

SMILES | Human M1 Emin [%] | human mAChR M1 antagonist activity, comparison in words (compound 61 versus compound 62, from Table 3) | IC50 [nM]
[2H]C([2H])([C@H]1CCOC(C)(C)C1)N1C[C@H]2C[C@H](Nc3ccc(-c4cccnc4C(F)(F)F)nn3)C[C@H]2C1 (single isomer, unassigned) [Compound 61] | 20 | less human mAChR M1 antagonist activity than compound 62 | > 10000
[2H]C([2H])([C@@H]1CCOC(C)(C)C1)N1C[C@H]2C[C@H](Nc3ccc(-c4cccnc4C(F)(F)F)nn3)C[C@H]2C1 [Compound 62, (3aR,5s,6aS)-2-(((R)-2,2-dimethyltetrahydro-2H-pyran-4-yl)methyl-d2)-N-(6-(2-(trifluoromethyl)pyridin-3-yl)pyridazin-3-yl)octahydrocyclopenta[c]pyrrol-5-amine] | 6 |  | 610

Reference: US20240109873A1, “ANTAGONISTS OF THE MUSCARINIC ACETYLCHOLINE RECEPTOR M4” (Vanderbilt University, priority 2020, published 2024)
